Where “and” joins values, the source holds several entries; their conditions need not be identical. Identical values can stand only once.
System: Caco-2/NKT cell co-culture
Test: Multiplex xMAP cytokine levels, Caco-2/NKT co-culture stimulated with LL-37
Format: cell-based, human
Details: NKT/Caco-2 co-culture, 1 µM LL-37, 24 h, n=2
Protocol: Caco-2 cell line (ATCC HTB-37) was cultured in a humidified CO2-incubator (5% CO2, 37 °C) in the complete DMEM/F12 (1:1) medium (Gibco, Waltham, MA, USA) containing 10% fetal bovine serum (FBS, Gibco) and 1X antibiotic–antimycotic solution (Gibco). To stabilize the cell phenotype, Caco-2 cells have been subcultivated three times before seeding on the filter supports. Then, Caco-2 cells were seeded at a density of 2 × 10^5 cells/cm^2 onto 24-well Millicell cell culture inserts (PC, 0.4-μm pore size, 0.6 cm^2 surface area, cat. #PIHP01250) (Millipore, Burlington, MA, USA), precoated with 0.2% bovine gelatin (Sigma-Aldrich, Saint Louis, MO, USA). After seeding, Caco-2 cells were grown in the same complete medium with re-feeding every 2–3 days until polarization of the monolayer occurred. The functional polarity of the monolayers was developed when transepithelial electrical resistance (TEER) between the apical and basolateral surfaces of the monolayers reached […] as measured by the electrical resistance system Millicell-ERS Voltohmmeter (Millipore, Burlington, MA, USA). Grown cell monolayers were used in transport and cytokine production experiments between the 21st and 29th days.
NKT cells (CD3^+CD56^+) were isolated from PBMCs using the FACSVantageDiVa cell sorter (Becton Dickinson, Franklin Lakes, NJ, USA), equipped with 405, 488, and 643 nm lasers (Supporting Materials, Figure S1). PBMCs were re-suspended in the FACS buffer (PBS containing 0.5% BSA and 2 mM EDTA) and labeled with monoclonal mouse anti-human CD3-APC (clone UCHT1, Beckman Coulter, Pasadena, CA, USA) and mouse anti-human CD56-PE/Cy7 (clone N901, Beckman Coulter) antibodies to isolate NKT cells (CD3^+CD56^+).
Sorted NKT cells were expanded by stimulation with Dynabead Human T-Expander CD3/CD28 magnetic beads (Gibco) in RPMI-1640 medium containing 10% FBS, 1X antibiotic–antimycotic solution, 100 U/mL IL-2 (Gibco), and 50 ng/mL IL-7 (Sci-Store). CD3/CD28 magnetic beads were subsequently removed with a magnet. Expanded NKT cells were washed out of the cytokines and cryopreserved.
Primary blood monocytes, moDCs, and NKT cells were seeded in 600 µL of complete RPMI-1640 with 10% Human AB serum (Capricorn Scientific, Ebsdorfergrund, Germany) and supplemented with 1X antibiotic–antimycotic solution into the wells of 24-well plates at a density of 3–7 × 10^5 cells/well 24 h before the experiment. Then, 24 h later, the medium in each well was replaced by the same medium with 1 µM of LL-37 for the sample wells or fresh medium alone for the control wells, and the permeable inserts with the Caco-2 monolayer with TEER > 400 Ω × cm^2, containing 400 μL of the complete medium in their apical chamber, were immediately placed into the appropriate wells. Also, inserts with the Caco-2 monolayer were placed in cell-free wells of 24-well plates in the same complete RPMI-1640 medium with or without 1 µM of LL-37 as controls. Cells were kept in a CO2-incubator (5% CO2, 37 °C) for another 24 h. Then, culture medium from each well was collected, centrifuged, and frozen at −70 °C.
To quantitatively evaluate a broad spectrum of analytes secreted by human cell cultures at the protein level, multiplex xMAP technology was used. […]

LL-37: the only human cathelicidin, host defense antimicrobial peptide of 37 a.a. residues, produced by solid-phase peptide synthesis
IL-18 level (control 0.74): 0.52 pg/mL | MDC level (control 1.37): 0.58 pg/mL | IL-2 level (control 1.49): 1.16 pg/mL | IL-6 level (control 1.7): 1.09 pg/mL | FLT-3L level (control 2.11): 1.96 pg/mL | IL-8 level (control 3.74): 5.93 pg/mL | IFNa2 level (control 4): <3.88↓ pg/ml | IL-4 level (control 4.85): 6.05 pg/mL | IL-9 level (control 5.8): 5.8 pg/mL | IFNg level (control 6.08): 5.17 pg/mL | MCP-3 level (control 7.84): 7.84 pg/mL | IL-1a level (control 9.17): 10.05 pg/mL | TNFb level (control 12.53): 16.33 pg/mL | TNFa level (control 15.69): 16.61 pg/mL | sCD40L level (control 23.6): 23.6 pg/mL | IL-22 level (control 27.2, p = 0.093): 34 pg/mL and 34.37 pg/mL | PDGF-AB/BB level (control 29.35): 41.49 pg/mL | GROa level (control 30.74): 50.06 pg/mL | FGF-2 level (control 35.81): 41.88 pg/mL | IL-27 level (control 35.81): 51.37 pg/mL | MIP-1b level (control 36.43): 42.84 pg/mL | MIG level (control 53.25): 70 pg/mL | M-GSF level (control 55.64): 47.83 pg/mL | GM-CSF level (control 69.7): 65.72 pg/mL | IP-10 level (control 141.7): 206.59 pg/mL | IL-13 level (control 179.71): 178.25 pg/mL | PDGF-AA level (control 200.08): 182.58 pg/mL | IL-5 level (control 246.49): 258.81 pg/mL | MIP-1a level (control 399.48): 471.29 pg/mL | RANTES level (control 718.58): 908.6 pg/mL | VEGFa level (control 951.17): 1907 pg/mL | IL-7 level (control <0.30): <0.30↓ pg/ml | IL-3 level (control <0.55): <0.55↓ pg/ml | TGF-a level (control <0.68): <0.68↓ pg/ml | IL-17A level (control <0.70): <0.70↓ pg/ml | IL-1b level (control <0.74): <0.74↓ pg/ml | IL-1RA level (control <0.93): <0.93↓ pg/ml | IL-10 level (control <1.35): <1.35↓ pg/ml | MCP-1 level (control <1.35): 2.13 pg/mL | IL-15 level (control <1.54): <1.54↓ pg/ml | EGF level (control <1.60): 2.26 pg/mL | IL-12 (p70) level (control <1.71): <1.71↓ pg/ml | G-CSF level (control <2.32): <2.32↓ pg/ml | Eotaxin level (control <2.91): <2.91↓ pg/ml | IL-12 (p40) level (control <3.33): <3.33↓ pg/ml | IL-17F level (control <12.19): <12.19↓ pg/ml | Fractalkine level (control <18.09): 19.78 pg/mL | IL-17E/IL-25 level (control <19.43): <19.43↓ pg/ml

Source: PMC10526274, “Epithelial-Immune Cell Crosstalk Determines the Activation of Immune Cells In Vitro by the Human Cathelicidin LL-37 at Low Physiological Concentrations” (Biomolecules, 2023)
